This is an account of results in EP0103895A2, “Novel hydroxylamine derivatives, production and use thereof” (MEIJI SEIKA KABUSHIKI KAISHA, priority 1982, dated 1984).

The subject of assay [1] is fowl roundworm (Ascaridia galli). As to the kind of experiment: Anthelmintic test in chickens artificially infected with fowl roundworm, single oral dose in gelatin capsule, worm bodies counted within 48 hours (Test Examples A1, B1, C1, D1). The format is in vivo. Particulars: Ascaridia galli, po, 48 h, read-out: Anthelmintic effect after 48 hours; for inhibition in vivo at 15 mg/kg: 15 mg/Kg oral in gelatin capsule. The protocol:
Chickens infected artificially with fowl roundworm (Ascaridia galli) were employed in groups each consisting of three chickens. Fecal matter testing was conducted before administration of medicine to confirm infection with the worm. The quantity of the compound provided for testing was 10 mg and 20 mg per Kg of body weight, which was orally administered each in a gelatin capsule to the chicken. The number of worm bodies discharged within 48 hours after administration of medicine was counted, the chicken was killed after 48 hours and the number of worm bodies remaining in the enteron was counted to determine the anthelmintic percentage, wherefrom the antihelmintic effect was judged.
The same as that in Test Example Al.
The same as that in Test Example Al except that the compound provided for testing was in quantities of 30 mg and 50 mg per Kg of body weight, which were orally administered to the chickens in gelatin capsules.
The same as that in Test Example Al, except that the compounds provided for testing were used in quantities of 15 mg and 30 mg per Kg of body weight, which were orally administered each in a gelatin capsule to the chicken.

For assay [2], the system named is swine Oesophagostomum (Oesophagostomum dentatum). As to the kind of experiment: Test of anthelmintic effect against swine Oesophagostomum in naturally infected pigs, E.P.G. on 7th day (Test Examples A8, B8, C8, D8). The format is in vivo. To be noted: for anthelmintic effect: one administration of 20 mg/Kg. The protocol: Six pigs infected with swine Oesophagostomum (naturally infected pigs) were employed by grouping them into groups each of two pigs.
As a control, only gelatin capsules were administered orally to the two pigs.
Before administration and on the 7th day after administration, fecal matter testing was conducted to calculate the E.P.G., and the anthelmintic effect was judged by the changing of the E.P.G. to negative.

In assay [3] the test system is fowl roundworm (As. galli). As to the kind of experiment: Anthelmintic test in chickens artificially infected with fowl roundworm, compound added to feed, E.P.G. and worm count up to 21st day (Test Examples A2, B2, C2, D2). Format: in vivo, Ascaridia galli. Particulars: for inhibition in vivo at 10 ppm: 10 ppm added to feed.
Assay [4] concerns Liver fluke; Fasciola hepatica (F. hepatica). As to the kind of experiment: Test of anthelmintic effect against rat infected experimentally with liver fluke (Test Examples A11, B11, C11, D11). The format is in vivo. Also on record: key to Presence or absence of fluke egg in fecal matter On 21st day after the last administration: +: indicates detection of fluke egg; -: indicates no detection. To be noted: for Condition of fluke body: autopsy, liver, "Denatured" = fluke body is alive but a part of fluke body has changed. The text has this:
Twenty-eight (28) rats were employed in fourteen groups each of two rats, each rat being infected with 5 metacercariae of Liver fluke; Fasciola he^patica (F.. hepatica) and confirmed to have worm eggs on the 75th day after infection according to fecal matter testing.
Judgement of the effect was made by the presence or absence of the worm gees in the fecal matter on the 21st day after the last administration and by examination according to autopsis as to whether the worm bodies were dead or alive in the liver.
The same as that in Test Example All, but eight (8) rats were employed by grouping them into groups each of two rats, each rat being infected with 5 metacercariae of liver fluke and confirmed to have fluke eggs on the 75th day after infection according to fecal matter testing.
The compounds provided for the tests were Compound Nos. Bl, B8 and B19.
The same as that in Test Example All, but six (6) rats were employed by grouping them into groups each of two rats, each rat being infected with 5 metacercariae of Fasciola hepatica and confirmed to have worm eggs on the 75th day after infection according to fecal matter testing.
The compounds provided for the tests were Compound Nos. C2 and C6.
The same as that in Test Example All, but the compounds provided for tests were Compound Nos. D14, D15 and D16.

Assay [5] has as its system Diphyllobothrium erinacei. As to the kind of experiment: Test of anthelmintic effect against Diphyllobothrium erinacei (tapeworm) in experimentally infected cats (Test Examples A5, B5, C5, D5). Particulars: for anthelmintic effect: cats, 5 continuous administrations of 50 mg/Kg.
Where [6] appears, read: chicken, 30 mg/Kg oral in gelatin capsule, chickens No.1-3.
Where [7] appears, read: pig, Oesophagostomum dentatum, 20 mg/Kg, one administration.
The mark [8] stands for this setting: pig, Oesophagostomum dentatum, before 20 mg/Kg (baseline).
Where [9] appears, read: Ascaridia galli, po, 504 h, chickens, worm count on 21st day, one value per chicken, read-out: Anthelmintic effect.
The mark [10] stands for this setting: Ascaridia galli, po, 504 h, chickens, 50 ppm added to feed, worm count on 21st day, one value per chicken, read-out: Anthelmintic effect.
The mark [11] stands for this setting: rats, 50 mg/Kg x 5 orally, one value per rat, 50 mg/kg.
[12] abbreviates: rats, 50 mg/Kg x 5 orally, one value per rat.
Setting [13] is: Ascaridia galli, feed or water, 504 h, chicken, 25 ppm in feed, read-out: Anthelmintic effect.
[14] abbreviates: Ascaridia galli, feed or water, 504 h, chicken, 50 ppm in feed, read-out: Anthelmintic effect.

SMILES strings stand for the structures. Where “and” joins values, the source holds several entries; their conditions need not be identical. Equal values may be shown once. Read-outs that look alike come from different tables or passages of the source.

As to `C#CCNOCCCC` [Compound D12], in assay [1] (setting [6]), the inhibition in vivo at 30 mg/kg is 100%. The “Change of E.P.G. 7th day” value in assay [2] (setting [7]) came to 0. In assay [2] (setting [8]), the “Change of E.P.G. Before administration” value is 1,600 and 2,100. In addition, the “anthelmintic effect” value in assay [2] (pigs) was “marked anthelmintic effect”.

For the compound `C#CCN(C=O)OCC=C` [Compound A13, N-propargyl-N-formyl-0-allylhydroxylamine], in assay [1] (chickens, 10 mg/Kg orally in gelatin capsule, one value per chicken (No.1-3)), the inhibition in vivo at 10 mg/kg came to 100%. Moreover, the inhibition in vivo at 20 mg/kg in assay [1] (chickens, 20 mg/Kg orally in gelatin capsule, one value per chicken (No.1-3)) is 100%. For the same compound, the inhibition in vivo at 10 ppm in assay [3] (setting [9]) is 80 to 90%. For the same compound, the inhibition in vivo at 50 ppm in assay [3] (setting [10]) worked out at 100%. Besides, the “Condition of fluke body” value in assay [4] (setting [11]) is “denatured and dead”. Further, the “Presence or absence of fluke egg in fecal matter On 21st day after the last administration” value (“Presence or absence of fluke egg” for short) in assay [4] (setting [12]) is listed as “-”.

As for `C#CCNOCC#C` [Compound D15], in assay [1] (chicken, chickens No.1-3), the inhibition in vivo at 15 mg/kg is 100%. In addition, the inhibition in vivo at 30 mg/kg in assay [1] (setting [6]) was found to be 100%. For the same compound, in assay [3] (setting [13]), the inhibition in vivo at 25 ppm was in the range of 80 to 90%. Moreover, the inhibition in vivo at 50 ppm in assay [3] (setting [14]) is 100%. Further, in assay [4] (rat, 50 mg/Kg x 5), the “Condition of fluke bodies” value is listed as “dead” and the “Presence or absence of fluke egg” value is “-”. For the same compound, the “anthelmintic effect” value in assay [4] (rats, five administrations in a dose of 50 mg/Kg each) was “marked anthelmintic effect”.

Turning to `C#CCN(OCC=C)C(=O)CCC` [Compound A6, N-propargyl-N-butylyl-O-allylhydroxylamine], in assay [3] (setting [9]), the inhibition in vivo at 10 ppm is 100%. In addition, the inhibition in vivo at 50 ppm in assay [3] (setting [10]) was found to be 100%. Moreover, the “Condition of fluke body” value in assay [4] (setting [11]) is “dead and denatured”. Moreover, in assay [4] (setting [12]), the “Presence or absence of fluke egg” value is listed as “-”.

On to `C=CCN(OCCCCC)C(C)=O` [Compound B20], for which, in assay [1] (chickens, 30 mg/Kg orally in gelatin capsule, one value per chicken (No.1-3)), the inhibition in vivo at 30 mg/kg turned out to be 100%. The inhibition in vivo at 50 mg/kg in assay [1] (chickens, 50 mg/Kg orally in gelatin capsule, one value per chicken (No.1-3)) was 100%. Moreover, the inhibition in vivo at 20 ppm in assay [3] (Ascaridia galli, po, 504 h, chickens, 20 ppm added to feed, worm count on 21st day, one value per chicken, read-out: Anthelmintic effect) was 100%. The inhibition in vivo at 50 ppm in assay [3] (setting [10]) is 100%. Moreover, in assay [2] (pigs, 20 mg/Kg orally once, baseline, one value per pig, 20 mg/kg), the “Change of E.P.G. Before administration” value is 1,000 E.P.G. and 1,600 E.P.G. Besides, the “Change of E.P.G. 7th day” value in assay [2] (pigs, 20 mg/Kg orally once, one value per pig) was 0 E.P.G. Besides, the “anthelmintic effect” value in assay [2] (pigs) was “marked anthelmintic effect”.

For `C=CCNOC` [Compound D9], the inhibition in vivo at 15 mg/kg in assay [1] (chicken, chickens No.1-3) lay in the range of 50 to 79%. For the same compound, the inhibition in vivo at 30 mg/kg in assay [1] (setting [6]) came out at 100%. Besides, the “Number of worms remaining in enteron” value in assay [5] (cat, 50 mg/Kg x 5) was determined as 0. In addition, in assay [5], the “anthelmintic effect” value is recorded as “marked anthelmintic effects”.

In the case of `C#CCN(OCC=C)C(=O)c1ccccc1` [Compound A11, N-propargyl-N-benzoyl-O-allylhydroxylamine], in assay [3] (setting [9]), the inhibition in vivo at 10 ppm fell in the range of 80 to 90%. Besides, in assay [3] (setting [10]), the inhibition in vivo at 50 ppm worked out at 100%. Further, in assay [4] (setting [12]), the “Condition of fluke body” value is on record as “dead” and the “Presence or absence of fluke egg” value was “-”.

On to `C=CCON(CC=C)C(=O)c1ccc(F)cc1` [Compound C7], for which the inhibition in vivo at 30 mg/kg in assay [1] (setting [6]) is 100%. Also, the inhibition in vivo at 50 mg/kg in assay [1] (chicken, 50 mg/Kg oral in gelatin capsule, chickens No.1-3) came out at 100%. Besides, the inhibition in vivo at 25 ppm in assay [3] (setting [13]) came out at 100%. Further, the inhibition in vivo at 50 ppm in assay [3] (setting [14]) is 100%. In addition, the “Change of E.P.G. 21st day” value was 0 in assay [3] (chicken, 25 ppm in feed) and 0 in assay [3] (chicken, 50 ppm in feed). In addition, the “Number of worm bodies remaining in enteron” value in assay [5] (cat, 50 mg/Kg x 5, oral in gelatin capsule) was determined as 0. Further, the “Worm egg detection on 10th day after administration” value in assay [5] (cat, 50 mg/Kg x 5, oral in gelatin capsule, once per day for 5 days) is given as “-”. For the same compound, the “anthelmintic effect” value in assay [5] was “marked anthelmintic effects”.

Take `C=CCNOCC(C)C` [Compound D3]: in assay [1] (setting [6]), the inhibition in vivo at 30 mg/kg is 100%. For the same compound, the inhibition in vivo at 25 ppm in assay [3] (setting [13]) was 80 to 90%. The inhibition in vivo at 50 ppm in assay [3] (setting [14]) is 100%. Besides, the “Change of E.P.G. 7th day” value in assay [2] (setting [7]) is reported as 0. Further, the “Change of E.P.G. Before administration” value in assay [2] (setting [8]) was 2,200 and 1,800. Also, in assay [2] (pigs), the “anthelmintic effect” value is given as “marked anthelmintic effect”.

Turning to `C#CCN(OCC=C)C(=O)CCCCCCC/C=C\CCCCCCCC` [Compound A8, N-propargyl-N-oleoyl-O-allylhydroxylamine], the inhibition in vivo at 10 ppm in assay [3] (setting [9]) was determined as 100%. The inhibition in vivo at 50 ppm in assay [3] (setting [10]) was 100%. For the same compound, in assay [4] (setting [12]), the “Condition of fluke body” value is reported as “dead” and the “Presence or absence of fluke egg” value was “-”.

Consider `C#CCN(OCC)C(C)=O` [Compound A2, N-propargyl-N-acetyl-O-ethylhydroxylamine], for which the inhibition in vivo at 10 ppm in assay [3] (setting [9]) was in the range of 80 to 90%. Also, the inhibition in vivo at 50 ppm in assay [3] (setting [10]) amounted to 100%. In assay [4] (setting [12]), the “Condition of fluke body” value is “dead” and the “Presence or absence of fluke egg” value is “-”.
